The values that follow come from ChEMBL document CHEMBL3272338, “Bis-basic-substituted polycyclic aromatic compounds. A new class of antiviral agents. 8. Bis-basic derivatives of carbazole, dibenzofuran, and dibenzothiophene” (1977).

Each structure is given as a SMILES string.

Type in all cases: functional
Assay [1] concerns Encephalomyocarditis virus. The experiment in a line: Antiviral activity against Encephalomyocarditis virus infected in CF-1 mouse assessed as host survival time ratio at 50 mg/kg, sc administered 28, 22, 2 hrs before and 2 hrs after virus inoculation. The note with it: route subcutaneous.
Assay [2] has as its system Encephalomyocarditis virus. The experiment in a line: Antiviral activity against Encephalomyocarditis virus infected in CF-1 mouse assessed as host survival time ratio at 250 mg/kg, po administered via gavage as single dose at 22 to 28 hrs before virus inoculation.
The test system of assay [3] is Encephalomyocarditis virus. The experiment in a line: Antiviral activity against Encephalomyocarditis virus infected in CF-1 mouse assessed as host survival time ratio at 10 mg/kg, sc administered 28, 22, 2 hrs before and 2 hrs after virus inoculation. The note with it: route subcutaneous.
For assay [4], the system named is Encephalomyocarditis virus. The experiment in a line: Antiviral activity against Encephalomyocarditis virus infected in CF-1 mouse assessed as host survival time ratio at 50 mg/kg, po administered via gavage at 28, 22, 2 hrs before and 2 hrs after virus inoculation.
Assay [5] relates to Encephalomyocarditis virus. Kind of assay: Antiviral activity against Encephalomyocarditis virus infected in CF-1 mouse assessed as host survival time ratio at 250 mg/kg, sc administered 28, 22, 2 hrs before and 2 hrs after virus inoculation. The note with it: route subcutaneous.

As to `CC(C)N(CCOc1ccc2sc3ccc(OCCN(C(C)C)C(C)C)cc3c2c1)C(C)C.Cl`, the Ratio in assay [1] stood at 1.3; in assay [2], 1; in assay [3] it was 1.24; in assay [4], 1.18; in assay [5] it was 1.2.

On to `Cl.O=C(CN1CCCCC1)c1ccc2oc3ccc(C(=O)CN4CCCCC4)cc3c2c1`, for which the Ratio in assay [1] worked out at 1.12; in assay [2] it was 1.41; in assay [3] it was 1.11; in assay [4], 0.87; in assay [5] it was 2.41.

As for `CCCCN(CCCC)CCCOC(=O)c1ccc2oc3ccc(C(=O)OCCCN(CCCC)CCCC)cc3c2c1.Cl`, the Ratio in assay [1] is 1.4; in assay [3] it was 1.06; in assay [5] it was 1.6.

For `CCCN(CCC)CCCOC(=O)c1ccc2oc3ccc(C(=O)OCCCN(CCC)CCC)cc3c2c1.Cl`, the Ratio in assay [1] was determined as 1.21; in assay [3] it was 0.96; in assay [5], 1.88.

Consider `CC(C)CCN(CCCOC(=O)c1ccc2oc3ccc(C(=O)OCCCN(CCC(C)C)CCC(C)C)cc3c2c1)CCC(C)C`, for which the Ratio in assay [1] stood at 1.07; in assay [3] it was 0.91; in assay [5] it was 1.11.

As for `CCn1c2ccc(CCCCN3CCCCC3)cc2c2cc(CCCCN3CCCCC3)ccc21.Cl`, the Ratio was determined as 1.45 in assay [1], 1.28 in assay [3] and 0.57 in assay [5].

Regarding `O=C(CCCN1CCCCC1)c1ccc2oc3ccc(C(=O)CCCN4CCCCC4)cc3c2c1`, the Ratio is 1.49 in assay [1], 1.19 in assay [2], 1.06 in assay [4] and 1.81 in assay [5].

In the case of `CN(C)CCCCC(C)(C)COC(=O)c1ccc2c(c1)sc1ccc(C(=O)OCC(C)(C)CCCN(C)C)cc12.Cl`, the Ratio in assay [1] is 1.42; in assay [3], 1.07; in assay [5], 1.11.

Turning to `CCN(CC)CCCCc1ccc2c(c1)c1cc(CCCCN(CC)CC)ccc1n2CC.Cl`, the Ratio is 1.22 in assay [1], 1.17 in assay [2], 1.22 in assay [3] and 0.98 in assay [4].

Take `C=CCN(CC=C)CCCOC(=O)c1ccc2oc3ccc(C(=O)OCCCN(CC=C)CC=C)cc3c2c1.Cl`: the Ratio in assay [1] is given as 1.2; in assay [3], 1.11; in assay [5], 1.33.

With `CC(C)CCN(CCCOC(=O)c1ccc2c(c1)sc1ccc(C(=O)OCCCN(CCC(C)C)CCC(C)C)cc12)CCC(C)C.Cl`, the Ratio in assay [1] came out at 0.98; in assay [3], 0.96; in assay [5] it was 1.11.

With `CCN(CC)CCCOC(=O)c1ccc2sc3ccc(C(=O)OCCCN(CC)CC)cc3c2c1.Cl`, the Ratio in assay [1] was determined as 1.77; in assay [5], 1.3.

For the compound `CCCCN(CCCC)CCCNC(=O)c1ccc2oc3ccc(C(=O)NCCCN(CCCC)CCCC)cc3c2c1.O=C(O)CC(O)(CC(=O)O)C(=O)O`, the Ratio is given as 1.24 in assay [1], 1.17 in assay [3] and 0.85 in assay [5].

On to `CCN(CC)CCCOC(=O)c1ccc2oc3ccc(C(=O)OCCCN(CC)CC)cc3c2c1.Cl`, for which the Ratio is given as 1.19 in assay [1] and 1.22 in assay [5].

In the case of `Cl.O=C(OCCCN1CCCCC1)c1ccc2c(c1)sc1ccc(C(=O)OCCCN3CCCCC3)cc12`, the Ratio in assay [1] was 1.36; in assay [3] it was 1.4; in assay [5], 1.55.

Turning to `CCN(CC)CCOC(=O)c1ccc2c(c1)sc1ccc(C(=O)OCCN(CC)CC)cc12.Cl`, the Ratio in assay [1] is recorded as 1.04; in assay [3] it was 1.14; in assay [5], 1.2.

For `CCN(CC)CCCOC(=O)c1ccc2c(c1)c1cc(C(=O)OCCCN(CC)CC)ccc1n2CC.Cl`, the Ratio in assay [1] turned out to be 1.74; in assay [2] it was 0.75; in assay [3] it was 1.33; in assay [5] it was 1.87.
